From BigSolDB 2.1

CO/N=C(/C(=O)N[C@@H]1C(=O)N2C(C(=O)O)=C(COC(N)=O)CS[C@H]12)c1ccco1
solubility (mole fraction)
Settings	278.5 K	283.4 K	288.3 K	293.3 K	298.3 K	303.5 K	308.3 K	313.4 K
in acetone	0.00362	0.0036	0.00355	0.00342	0.00337	0.00331	0.00327	0.00324
in ethanol	0.00019	0.00022	0.00028	0.00032	0.00037	0.00052	0.00056	0.00061
in isopropanol	6e-05	9e-05	0.00011	0.00012	0.00012	0.00015	0.00027	0.00032
in water	3e-05	4e-05	4e-05	6e-05	7e-05	0.00012	0.00022	0.00026
